Like-named read-outs stand apart in the source and are kept apart here.
Legend:
[1] = tested on: cellular H3K36me2 level in multiple myeloma cell line KMS11 (t(4;14)+); experiment: H3K36me2 cellular FRET assay in KMS11-Par line; assay type: cell-based; settings: FRET, read-out: H3K36me2 FRET in KMS11-Par
Experimental: H3K36Me2 Cellular FRET Assay in KMS11-Par Line
Fluorescence Resonance Energy Transfer (FRET) assay was used to test the ability of candidate compound to reduce cellular H3K36me2 level in multiple myeloma cell line KMS11 (t(4;14)+) (Horizon Discovery Ltd.).
Cells were treated with tested compounds at the desired concentration for 48 hours. […] Histone extract was incubated with Eu labeled anti-H3K36me2 antibody (abcam #ab ab9049) and d2 labeled anti-H3 antibody (abcam #ab1791) for 1 hour at room temperature. A Eu labeled anti-H3 antibody (CISBIO #64CUS000) was used for loading control. The abundancy of H3K36me2 or total H3 was measured by fluorescence signal on Perkin Elmer Envison machine.

NSD2 [1-1365] = NSD2 [1-1365] (Homo sapiens (Human), UniProt O96028); experiment: LC-MS/MS-based NSD2 enzymatic assay (SAH production); assay type: biochemical
Summary of the method: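 SAH formed was measured by LC-MS/MS using d4-SAH as internal standard and an SAH calibration curve. Compounds were preincubated 20 min with NSD2 [1-1365] and SAM; mouse-liver nucleosome then started a 90 min room-temperature reaction (8 nM enzyme, 1 μM SAM, 400 nM nucleosome final, pH 8.0), stopped with TFA.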

[2] = tested on: cellular H3K36me2 level in multiple myeloma cell line KMS11 (t(4;14)+); experiment: H3K36me2 cellular ELISA assay in KMS11-Par line; assay type: cell-based; settings: Homo sapiens, KMS-11, ELISA, read-out: H3K36me2 ELISA in KMS11-Par
Summary of the method: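 After 72 h compound exposure, HCl-extracted histones from KMS11 (t(4;14)+) cells were probed by ELISA for H3K36me2 against total H3 with a chemiluminescence read-out. Cells were plated at 1,250/well in Opti-MEM plus B-27 and N2 the day before. A parallel CellTiter-Glo plate tracked viability.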

[3] = tested on: cellular H3K36me2 level in thyroid carcinoma cell line CGTH-W-1 (NSD2 E1099K); experiment: H3K36me2 cellular ELISA assay in CGTH-W-1 line; assay type: cell-based; settings: Homo sapiens, CGTH-W-1, 72 h, read-out: H3K36me2 ELISA in CGTH-W-1
Summary of the method: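 After 72 h compound treatment of NSD2 E1099K-mutant CGTH-W-1 cells, H3K36me2 and total H3 were quantified by ELISA with chemiluminescent read-out. A parallel-seeded plate gave cell viability by CellTiter-Glo.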

[4] = NSD2 biochemical activity, class symbols, read-out: NSD2 IC50
[5] = KMS11-Par line (t(4;14)+), 72 hours treatment

NSD2 [1-1365], sequence (O96028 whole entry): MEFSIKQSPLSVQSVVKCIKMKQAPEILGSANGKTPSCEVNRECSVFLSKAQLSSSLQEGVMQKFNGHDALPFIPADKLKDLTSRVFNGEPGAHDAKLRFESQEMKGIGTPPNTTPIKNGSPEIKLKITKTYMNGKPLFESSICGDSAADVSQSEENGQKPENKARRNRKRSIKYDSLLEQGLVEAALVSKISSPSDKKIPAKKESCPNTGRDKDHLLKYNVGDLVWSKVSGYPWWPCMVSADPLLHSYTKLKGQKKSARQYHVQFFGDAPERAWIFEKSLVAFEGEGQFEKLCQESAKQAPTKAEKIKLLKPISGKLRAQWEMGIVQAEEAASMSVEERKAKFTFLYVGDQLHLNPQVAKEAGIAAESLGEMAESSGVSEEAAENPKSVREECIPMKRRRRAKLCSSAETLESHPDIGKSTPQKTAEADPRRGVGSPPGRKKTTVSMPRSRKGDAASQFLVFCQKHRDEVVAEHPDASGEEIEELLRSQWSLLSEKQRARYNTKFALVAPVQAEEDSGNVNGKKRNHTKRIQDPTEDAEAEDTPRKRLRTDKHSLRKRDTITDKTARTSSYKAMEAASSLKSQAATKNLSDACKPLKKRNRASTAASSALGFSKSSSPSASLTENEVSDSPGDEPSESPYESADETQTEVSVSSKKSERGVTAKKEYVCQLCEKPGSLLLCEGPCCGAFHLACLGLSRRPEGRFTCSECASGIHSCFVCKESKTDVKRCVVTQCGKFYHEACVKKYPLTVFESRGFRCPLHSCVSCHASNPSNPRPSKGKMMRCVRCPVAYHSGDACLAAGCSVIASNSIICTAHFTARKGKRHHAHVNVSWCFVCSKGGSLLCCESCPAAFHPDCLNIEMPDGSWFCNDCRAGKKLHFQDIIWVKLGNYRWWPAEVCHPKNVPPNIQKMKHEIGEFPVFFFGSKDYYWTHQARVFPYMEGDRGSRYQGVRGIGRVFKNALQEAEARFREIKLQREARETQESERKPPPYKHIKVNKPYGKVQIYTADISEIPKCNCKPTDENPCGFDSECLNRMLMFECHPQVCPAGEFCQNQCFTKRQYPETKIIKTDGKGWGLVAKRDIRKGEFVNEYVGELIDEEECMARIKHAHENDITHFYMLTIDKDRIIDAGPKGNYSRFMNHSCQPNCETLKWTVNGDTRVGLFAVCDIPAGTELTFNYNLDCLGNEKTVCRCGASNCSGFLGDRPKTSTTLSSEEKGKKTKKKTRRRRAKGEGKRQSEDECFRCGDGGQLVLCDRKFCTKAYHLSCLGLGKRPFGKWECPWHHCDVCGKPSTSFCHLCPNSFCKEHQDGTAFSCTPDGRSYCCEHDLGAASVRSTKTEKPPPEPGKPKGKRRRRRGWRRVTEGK

Row | SMILES | IC50 (NSD2 [1-1365]; [4]) | IC50 (NSD2 [1-1365]; read-out: NSD2 IC50) | IC50 [2, 5] | IC50 [3] | IC50 ([2]; KMS11-Par line, 72 hours) | other results
1 | COC[C@@]1(N)CCCN(c2cnc(-c3ccc(OC)c(F)c3)cc2Cn2cnc3c(N)ncnc32)C1 [Example 38, (R)-9-((5-(3-amino-3-(methoxymethyl)piperidin-1-yl)-2-(3-fluoro-4-methoxyphenyl)pyridin-4-yl)methyl)-9H-purin-6-amine] | 10 to 1000 nM |  |  |  |  | IC50 ([1]; KMS11-Par line, cellular H3K36me2 level): 721 nM
2 | COc1ccc(-c2cc(Cn3cnc4c(N)ncnc43)c(N3CCC[C@@H](N)C3)cn2)cc1 [Example 11, (R)-9-((5-(3-aminopiperidin-1-yl)-2-(4-methoxyphenyl)pyridin-4-yl)methyl)-9H-purin-6-amine] | 10 to 1000 nM |  |  |  |  | IC50 ([1]; Homo sapiens, KMS-11, KMS11-Par line, cellular H3K36me2 level): 11200 nM
3 | CSCC1(N)CCCN(c2cnc(-c3ccc(F)c(F)c3)cc2Cn2cnc3c(N)ncnc32)C1 (stereo not drawn) [Example 297, 9-((5-(3-amino-3-((methylthio)methyl)piperidin-1-yl)-2-(3,4-difluorophenyl)pyridin-4-yl)methyl)-9H-purin-6-amine] |  | 10 to 1000 nM |  |  |  | IC50 ([1]; Homo sapiens, KMS-11, KMS11-Par line): 2350 nM
4 | Nc1ncnc2c1ncn2Cc1cc(-c2ccc(F)c(Cl)c2)ncc1N1CCC[C@](N)([C@H](O)C(F)F)C1 [Example 139, (S)-1-((R)-3-amino-1-(4-((6-amino-9H-purin-9-yl)methyl)-6-(3-chloro-4-fluorophenyl)pyridin-3-yl)piperidin-3-yl)-2,2-difluoroethan-1-ol] | 10 to 1000 nM |  | 2840 nM | 669 nM |  | 
5 | Cn1ccc(C(=O)C2(N)CCCN(c3cnc(-c4ccc(F)c(F)c4)cc3Cn3cnc4c(N)ncnc43)C2)n1 (stereo not drawn) [Example 110, (3-amino-1-(4-((6-amino-9H-purin-9-yl)methyl)-6-(3,4-difluorophenyl)pyridin-3-yl)piperidin-3-yl)(1-methyl-1H-pyrazol-3-yl)methanone] | 10 to 1000 nM |  | 6340 nM | 1360 nM |  | 
6 | Nc1ncnc2c1ncn2Cc1cc(-c2ccc(F)c(F)c2)ncc1N1CCC[C@](N)([C@@H]2COCCO2)C1 [Example 289, 9-((5-((R)-3-amino-3-((R)-1,4-dioxan-2-yl)piperidin-1-yl)-2-(3,4-difluorophenyl)pyridin-4-yl)methyl)-9H-purin-6-amine] |  | 1 to 10 nM |  | 492 nM | 2670 nM | 
7 | COc1ccc(-c2cc(Cn3cnc4c(N)ncnc43)c(N3CCC[C@](N)(C(O)C(F)F)C3)cn2)c(C(F)(F)F)c1 (stereo in doubt) [Example 166, (S)-1-((R)-3-amino-1-(4-((6-amino-9H-purin-9-yl)methyl)-6-(4-methoxy-2-(trifluoromethyl)phenyl)pyridin-3-yl)piperidin-3-yl)-2,2-difluoroethan-1-ol] | 1 to 10 nM |  | 8510 nM | 432 nM |  | 
8 | COc1c(F)cc(-c2cc(Cn3cnc4c(N)ncnc43)c(N3CCC[C@](N)(C(O)C(F)F)C3)cn2)cc1F (stereo in doubt) [Example 164, (R)-1-((R)-3-amino-1-(4-((6-amino-9H-purin-9-yl)methyl)-6-(3,5-difluoro-4-methoxyphenyl)pyridin-3-yl)piperidin-3-yl)-2,2-difluoroethan-1-ol] | 1 to 10 nM |  | 1060 nM | 130 nM |  | 
9 | CC(=C(F)F)[C@@]1(N)CCCN(c2cnc(-c3ccc(F)c(F)c3)cc2Cn2cnc3c(N)ncnc32)C1 [Example 293, (S)-9-((5-(3-amino-3-(1,1-difluoroprop-1-en-2-yl)piperidin-1-yl)-2-(3,4-difluorophenyl)pyridin-4-yl)methyl)-9H-purin-6-amine] |  | 10 to 1000 nM |  | 1300 nM | 3210 nM | 
10 | Cn1ncc([C@@]2(N)CCCN(c3cnc(-c4ccc(F)c(F)c4)cc3Cn3cnc4c(N)ncnc43)C2)n1 [Example 283, (R)-9-((5-(3-amino-3-(2-methyl-2H-1,2,3-triazol-4-yl)piperidin-1-yl)-2-(3,4-difluorophenyl)pyridin-4-yl)methyl)-9H-purin-6-amine] |  |  |  | 110 nM | 1020 nM | IC50 (NSD2 [1-1365]; NSD2 IC50): 1 to 10 nM
11 | COc1ccc(-c2cc(Cn3cnc4c(N)ncnc43)c(N3CCC[C@](N)([C@H](O)C(F)F)C3)cn2)cc1F [Example 127, (S)-1-((R)-3-amino-1-(4-((6-amino-9H-purin-9-yl)methyl)-6-(3-fluoro-4-methoxyphenyl)pyridin-3-yl)piperidin-3-yl)-2,2-difluoroethan-1-ol] | 1 to 10 nM |  | 901 nM | 262 nM |  | 
12 | Nc1ncnc2c1ncn2Cc1cc(-c2cc(F)cc(C(F)F)c2F)ncc1N1CCC[C@](N)([C@@H](O)C(F)F)C1 [Example 154, (R)-1-((R)-3-amino-1-(4-((6-amino-9H-purin-9-yl)methyl)-6-(3-(difluoromethyl)-2,5-difluorophenyl)pyridin-3-yl)piperidin-3-yl)-2,2-difluoroethan-1-ol] | 10 to 1000 nM |  | 9110 nM | 2930 nM |  | 
13 | Nc1ncnc2c1ncn2Cc1cc(-c2ccc(OC(F)F)cc2F)ncc1N1CCC[C@](N)([C@H](O)C(F)F)C1 [Example 153, (S)-1-((R)-3-amino-1-(4-((6-amino-9H-purin-9-yl)methyl)-6-(4-(difluoromethoxy)-2-fluorophenyl)pyridin-3-yl)piperidin-3-yl)-2,2-difluoroethan-1-ol] | 10 to 1000 nM |  | 5080 nM | 217 nM |  | 
14 | Nc1ncnc2c1ncn2Cc1cc(-c2ccc(F)c(F)c2)ncc1N1CCC[C@](N)(c2cccc(C(F)F)n2)C1 [Example 227, (R)-9-((5-(3-amino-3-(6-(difluoromethyl)pyridin-2-yl)piperidin-1-yl)-2-(3,4-difluorophenyl)pyridin-4-yl)methyl)-9H-purin-6-amine] |  | 10 to 1000 nM |  | 133 nM | 302 nM | 
15 | COc1cc(F)ccc1-c1cc(Cn2cnc3c(N)ncnc32)c(N2CCC[C@](N)([C@@H](O)C(F)F)C2)cn1 [Example 174, (R)-1-((R)-3-amino-1-(4-((6-amino-9H-purin-9-yl)methyl)-6-(4-fluoro-2-methoxyphenyl)pyridin-3-yl)piperidin-3-yl)-2,2-difluoroethan-1-ol] |  | 10 to 1000 nM |  | 1160 nM | 10600 nM | 
16 | COc1ccc(-c2cc(Cn3cnc4c(N)ncnc43)c(N3CCC[C@](N)([C@@H](O)C(F)F)C3)cn2)c(Cl)c1 [Example 169, (R)-1-((R)-3-amino-1-(4-((6-amino-9H-purin-9-yl)methyl)-6-(2-chloro-4-methoxyphenyl)pyridin-3-yl)piperidin-3-yl)-2,2-difluoroethan-1-ol] |  | 10 to 1000 nM |  | 426 nM | 2990 nM | 
17 | COc1ccc(-c2cc(Cn3cnc4c(N)ncnc43)c(N3CCC[C@](N)(c4cccc(Cl)n4)C3)cn2)nc1F [Example 224, (R)-9-((5-(3-amino-3-(6-chloropyridin-2-yl)piperidin-1-yl)-6′-fluoro-5′-methoxy-[2,2′-bipyridin]-4-yl)methyl)-9H-purin-6-amine] |  | 1 to 10 nM |  | 348 nM | 1710 nM | 
18 | Nc1ncnc2c1ncn2Cc1cc(-c2cc(F)c(F)cc2C(F)F)ncc1N1CCC[C@](N)([C@@H]2COCCO2)C1 [Example 291, 9-((5-((R)-3-amino-3-((R)-1,4-dioxan-2-yl)piperidin-1-yl)-2-(2-(difluoromethyl)-4,5-difluorophenyl)pyridin-4-yl)methyl)-9H-purin-6-amine] |  | 10 to 1000 nM |  | 812 nM | 1690 nM | 
19 | COc1cc(F)nc([C@@]2(N)CCCN(c3cnc(-c4ccc(F)c(F)c4)cc3Cn3cnc4c(N)ncnc43)C2)c1 [Example 235, (R)-9-((5-(3-amino-3-(6-fluoro-4-methoxypyridin-2-yl)piperidin-1-yl)-2-(3,4-difluorophenyl)pyridin-4-yl)methyl)-9H-purin-6-amine] |  | 1 to 10 nM |  | 705 nM | 970 nM | 
20 | Nc1ncnc2c1ncn2Cc1cc(-c2cc(F)c(F)cc2C(F)F)ncc1N1CCC[C@](N)([C@@H](O)C(F)F)C1 [Example 170, (R)-1-((R)-3-amino-1-(4-((6-amino-9H-purin-9-yl)methyl)-6-(2-(difluoromethyl)-4,5-difluorophenyl)pyridin-3-yl)piperidin-3-yl)-2,2-difluoroethan-1-ol] |  | 10 to 1000 nM |  | 161 nM | 1470 nM | 
